# Source: ChEMBL document CHEMBL5528030, “Discovery of Natural Ah Receptor Antagonists from Salvia miltiorrhiza Bunge and Synthesis of Analogs for Tumor Immunotherapy” (J Med Chem, 2024)
# What was measured:
# [1] = target: T1, Aryl hydrocarbon receptor (Mus musculus, UniProt P30561); assay: Antagonist activity at AhR receptor in mouse B16-F10 cells assessed as inhibition of kynurenine-induced receptor nuclear translocation by measuring decrease in receptor level in nucleus at 30 uM measured after 24 hrs by western blot analysis; format: subcellular; conditions: b16-f10, 24 h
# T1 sequence (P30561 whole entry): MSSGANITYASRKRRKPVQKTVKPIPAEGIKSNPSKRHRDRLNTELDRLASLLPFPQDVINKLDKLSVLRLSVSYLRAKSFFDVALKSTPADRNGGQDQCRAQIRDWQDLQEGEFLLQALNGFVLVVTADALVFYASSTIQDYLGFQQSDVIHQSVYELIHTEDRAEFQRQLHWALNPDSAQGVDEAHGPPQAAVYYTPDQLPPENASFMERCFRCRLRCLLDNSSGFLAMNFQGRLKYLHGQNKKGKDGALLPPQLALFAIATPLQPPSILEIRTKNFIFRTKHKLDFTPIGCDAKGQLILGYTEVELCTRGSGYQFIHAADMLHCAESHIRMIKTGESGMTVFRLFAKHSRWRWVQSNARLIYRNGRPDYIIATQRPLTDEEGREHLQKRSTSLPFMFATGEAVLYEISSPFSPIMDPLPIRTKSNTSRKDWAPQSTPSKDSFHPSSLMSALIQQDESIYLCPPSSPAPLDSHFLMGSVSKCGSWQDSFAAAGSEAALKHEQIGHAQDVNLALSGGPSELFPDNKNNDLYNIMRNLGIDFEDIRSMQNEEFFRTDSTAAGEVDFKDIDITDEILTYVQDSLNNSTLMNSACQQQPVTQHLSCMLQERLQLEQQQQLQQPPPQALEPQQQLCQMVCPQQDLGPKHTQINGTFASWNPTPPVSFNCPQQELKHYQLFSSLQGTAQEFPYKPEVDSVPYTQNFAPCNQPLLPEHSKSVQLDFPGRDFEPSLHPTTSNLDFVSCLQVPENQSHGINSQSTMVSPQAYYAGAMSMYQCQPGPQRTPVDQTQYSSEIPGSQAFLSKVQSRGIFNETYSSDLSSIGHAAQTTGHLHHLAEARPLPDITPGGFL
# [2] = target: T1, Aryl hydrocarbon receptor; assay: Antagonist activity at AhR receptor in mouse B16-F10 cells assessed as inhibition of kynurenine-induced receptor nuclear translocation by measuring increase in receptor level in cytoplasm at 30 uM measured after 24 hrs by western blot analysis; format: subcellular; conditions: b16-f10, 24 h
# [3] = target: T1, Aryl hydrocarbon receptor; assay: Antagonist activity at AhR receptor in kynurenine-stimulated mouse B16-F10 cells assessed as decrease in IDO-1 gene expression at 10 to 30 uM measured after 48 hrs by RT-qPCR analysis; format: cell-based; conditions: b16-f10, 48 h, dose 10-30 µM
# [4] = Toxicity against C57BL/6 mouse xenografted with mouse B16-F10 cells assessed as change in body weight at 0.3 to 1 mg/kg, po administered daily and measured for 15 days; format: organism-based; conditions: in vivo, 360 h, dose 0.3-1 mg/kg, time 15 day
# [5] = target: T1, Aryl hydrocarbon receptor; assay: Antagonist activity at AhR receptor in kynurenine-stimulated mouse B16-F10 cells assessed as decrease in AhRR gene expression at 10 to 30 uM measured after 24 hrs by RT-qPCR analysis; format: cell-based; conditions: b16-f10, 24 h, dose 10-30 µM
# [6] = target: T1, Aryl hydrocarbon receptor; assay: Antagonist activity at AhR receptor in kynurenine-stimulated mouse B16-F10 cells assessed as decrease in IL-6 gene expression at 10 to 30 uM measured after 24 hrs by RT-qPCR analysis; format: cell-based; conditions: b16-f10, 24 h, dose 10-30 µM
# [7] = target: T1, Aryl hydrocarbon receptor; assay: Antagonist activity at AhR receptor in mouse B16-F10 cells assessed as inhibition of kynurenine-induced receptor nuclear translocation by measuring increase in receptor level in cytoplasm at 10 to 30 uM measured after 72 hrs by Hoechst staining based immunofluorescence analysis; format: cell-based; conditions: b16-f10, 72 h, dose 10-30 µM
# [8] = target: T1, Aryl hydrocarbon receptor; assay: Antagonist activity at AhR receptor in mouse B16-F10 cells assessed as inhibition of kynurenine-induced receptor nuclear translocation by measuring decrease in receptor level in nucleus at 10 to 30 uM measured after 72 hrs by Hoechst staining based immunofluorescence analysis; format: cell-based; conditions: b16-f10, 72 h, dose 10-30 µM
# B16-F10 = assay: animal or person; conditions: Mus musculus, B16-F10, 360 h, read-out: TGI
# Description: Antitumor activity against mouse B16-F10 cells xenografted in C57BL/6 mouse assessed as inhibition of tumor growth at 100 mg/kg, ip administered once a week and measured for 15 days
Compound,inhibition (INH) [1],inhibition (INH) [2],inhibition (INH) [3],Activity [4],inhibition (INH) [5],inhibition (INH) [6],inhibition (INH) [7],inhibition (INH) [8],inhibition in vivo at 100 mg/kg (B16-F10)
CC(=O)OC1Oc2c(C(C)C)cc3ccc4c(C)c(C)ccc4c3c2OC1c1ccccc1 (racemic),Active,Active,Active,Non-Toxic,Active,Active,Active,Active,
O=P1(N(CCCl)CCCl)NCCCO1 (centres undefined) [CYCLOPHOSPHAMIDE ANHYDROUS],,,,,,,,,92.2%
